Patent US20190374526A1, “Substituted Heterocyclic Compounds as Inhibitors of PRDM9” (Merck Sharp & Dohme Corp., priority 2018, published 2019)

target: T1, hPRDM9 (amino acids 195-385) (Homo sapiens, UniProt Q9NQV7); experiment: PRDM9 biochemical assay (radiometric, 3[H] methyl transfer from SAM to biotinylated histone H3 peptide); settings: 1 nM hPRDM9, 1 μM biotinylated H3(1-25)K4 peptide, 5 μM 3[H]-SAM, 55 μM un-labeled SAM, 25° C., 30 minutes
T1 construct: 1.25 nM hPRDM9 (amino acids 195-385)
T1 sequence (Q9NQV7 195-385): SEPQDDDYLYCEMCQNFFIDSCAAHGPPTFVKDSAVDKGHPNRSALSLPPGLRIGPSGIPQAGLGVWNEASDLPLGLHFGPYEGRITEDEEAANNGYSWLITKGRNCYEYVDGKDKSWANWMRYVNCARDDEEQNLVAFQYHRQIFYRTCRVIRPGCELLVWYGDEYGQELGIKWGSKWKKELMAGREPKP
Protocol: The PRDM9 biochemical assay was carried out using a radiometric format involving the transfer of ^3[H] methyl group from S-adenosyl methionine (SAM) to a biotinylated histone H3 peptide (H3(1-25)K4). 10 mM compounds in DMSO were diluted 20 fold in assay buffer (10 mM Tris-HCl, pH 8.5, 10 mM DTT, and 0.01% Triton X-100) before adding […] to a well in a 384 well polypropylene microplate plate and adding 8 μl of reaction mix (1.25 nM hPRDM9 (amino acids 195-385), 1.25 μM biotinylated H3 peptide in assay buffer). The ^3[H]-SAM and cold SAM stock solutions were diluted to 50 μM and 550 μM respectively in assay buffer before aliquoting 1 μl of 50 μM ^3[H]-SAM, 550 μM SAM into each well to initiate the reaction. The assay was performed at 25° C. at the final concentrations of 1 nM hPRDM9, 1 μM peptide, 5 μM ^3[H]-SAM, and 55 μM un-labeled SAM in assay buffer. The reaction was quenched after 30 minutes by adding 25 μl 7.5 M Guanidine-HCl. Quenched reactions were transferred to streptavidin coated Flashplates, diluted two fold in assay buffer, incubated for 1 hour, and read on a Perkin Elmer Topcount instrument. Compound activity was expressed relative to activity of 0.5% (v/v) DMSO treated samples and fit to a four parameter logistic equation to determine IC50 values.

SMILES	IC50 [µM]
COc1cc(OC)cc(-c2noc(N3CCN(C)C4(CN(c5ccnc(C)c5)C4)C3)n2)c1 [Compound 164]	0.315
COc1cccc(-c2noc(N3CCOC4(CCN(c5ccnc(C)c5)CC4)C3)n2)c1 [Compound 166]	0.8
Cc1cc(NCC23CC2CN(c2nc(-c4cc(Cl)cc(Cl)c4)no2)C3)ccn1 (stereo not shown) [Compound 168]	9
Cc1cc(NCCC2CN(c3nc(-c4cc(Cl)cc(Cl)c4)no3)CCO2)ccn1 (stereo not shown) [Compound 170]	0.4
COc1cccc(-c2noc(N3CCC(CCNc4ccnc(C)c4)C3)n2)c1 (stereo not shown) [Compound 171]	4
Cc1cc(NCC2CC(C)N(c3nc(-c4cc(Cl)cc(Cl)c4)no3)C2)ccn1 (stereo not shown) [Compound 172]	5.29
Cc1cc(NCCC2CN(c3nc(-c4cc(Cl)cc(Cl)c4)no3)c3ccccc32)ccn1 (stereo not shown) [Compound 175]	3.81
Cc1cc(NCC2CN(c3nc(-c4cc(Cl)cc(Cl)c4)no3)CCC2C)ccn1 (stereo not shown) [Compound 176]	13.6
Cc1cc(NC2CCC3CN(c4nc(-c5cc(Cl)cc(Cl)c5)no4)CC32)ccn1 (stereo not shown) [Compound 177]	8.64
Cc1cc(NC2CCC3CN(c4nc(-c5cc(Cl)cc(Cl)c5)no4)CC32)ccn1 (stereo not shown) [Compound 178]	1.15
COc1cc(OC)cc(-c2noc(N3CC(c4ccccc4)OC4(CCN(c5ccnc(C)c5)CC4)C3)n2)c1 (stereo not shown) [Compound 181]	2.14
COc1cc(OC)cc(-c2noc(N3CCCC4(CN(c5ccnc(C)c5)C4)C3)n2)c1 [Compound 182]	0.163
COc1cc(OC)cc(-c2noc(N3CCCC4(CCN(c5cc(C)nc(F)c5)CC4)C3)n2)c1 [Compound 188]	45
COc1cc(N2CC3(CCCN(c4nc(-c5cc(Cl)cc(Cl)c5)no4)C3)C2)ccn1 [Compound 193]	2
N#Cc1ccnc(N2CC3(CCCN(c4nc(-c5cc(Cl)cc(Cl)c5)no4)C3)C2)c1 [Compound 197]	2
OCc1ncc(N2CC3(CCCN(c4nc(-c5cc(Cl)cc(Cl)c5)no4)C3)C2)cn1 [Compound 200]	19
Clc1cc(Cl)cc(-c2noc(N3CCCC4(CN(c5cnccn5)C4)C3)n2)c1 [Compound 202]	2
Clc1cc(Cl)cc(-c2noc(N3CCCC4(CN(c5ccncc5)C4)C3)n2)c1 [Compound 203]	1
Cc1cc(N2CC3(CCCN(c4nc(-c5cc(Cl)cc(Cl)c5)no4)C3)C2)cc(C)n1 [Compound 205]	0.16
CC(C)c1cc(N2CC3(CCCN(c4nc(-c5cc(Cl)cc(Cl)c5)no4)C3)C2)ccn1 [Compound 206]	1.6
CCc1cc(N2CC3(CCCN(c4nc(-c5cc(Cl)cc(Cl)c5)no4)C3)C2)ccn1 [Compound 207]	0.4

SMILES	IC50 [µM]
O=c1cc(N2CC3(CCCN(c4nc(-c5cc(Cl)cc(Cl)c5)no4)C3)C2)cc[nH]1 [Compound 208]	5
Cc1cc(N2CCCC3CN(c4nc(-c5cc(Cl)cc(Cl)c5)no4)CC32)ccn1 (stereo not shown) [Compound 210]	35
Cc1cc(N2CC3CCN(c4nc(-c5cc(Cl)cc(Cl)c5)no4)C3C2)ccn1 (stereo not shown) [Compound 212]	24
Cc1cc(N2CCC3C2CCCN3c2nc(-c3cc(Cl)cc(Cl)c3)no2)ccn1 (stereo not shown) [Compound 213]	1
Cc1cc(N2CCC(CNc3nc(-c4cc(Cl)cc(Cl)c4)no3)C2)ccn1 (stereo not shown) [Compound 215]	11
Cc1cc(N2CCC3(CCCN(c4nc(-c5cc(Cl)cc(Cl)c5)no4)C3)CC2)ccn1 [Compound 216]	0.246
Cc1cc(N2CC[C@H](Nc3nc(-c4cc(Cl)cc(Cl)c4)no3)C[C@@H]2C)ccn1 [Compound 217]	29.2
Cc1cc(N2CCC3C(CCN3c3nc(-c4cc(Cl)cc(Cl)c4)no3)C2)ccn1 (stereo not shown) [Compound 218]	35.5
Cc1cc(N2CCC3CN(c4nc(-c5cc(Cl)cc(Cl)c5)no4)CC3C2)ccn1 (stereo not shown) [Compound 219]	4.3
Cc1cc(NCC2=CCCN(c3nc(-c4cc(Cl)cc(Cl)c4)no3)C2)ccn1 [Compound 220]	9.2
Cc1cc(NC(C)C2CCN(c3nc(-c4cc(Cl)cc(Cl)c4)no3)C2)ccn1 (stereo not shown) [Compound 222]	13.8
Cc1cc(N2CCC3(CCCN(c4nc(-c5cc(Cl)cc(Cl)c5)no4)C3)C2)ccn1 (stereo not shown) [Compound 223]	12.1
Cc1cc(N2CCC(Nc3nc(-c4cc(Cl)cc(Cl)c4)no3)CC2)ccn1 [Compound 225]	≥ 50
Cc1cc(NC(C)C2CCN(c3nc(-c4cc(Cl)cc(Cl)c4)no3)C2)ccn1 (stereo not shown) [Compound 227]	35.5
Cc1cc(N2CC3C(C2)C3Nc2nc(-c3cc(Cl)cc(Cl)c3)no2)ccn1 (stereo not shown) [Compound 228]	34.3
Cc1cc(N2CCCC3(CCN3c3nc(-c4cc(Cl)cc(Cl)c4)no3)C2)ccn1 (stereo not shown) [Compound 231]	37.3
N#Cc1cncc(N2CC3(CCCN(c4nc(-c5cc(Cl)cc(Cl)c5)no4)C3)C2)c1 [Compound 232]	2
Cc1cc(N2CC3(CC(Nc4nc(-c5cc(Cl)cc(Cl)c5)no4)C3)C2)ccn1 [Compound 234]	8.03
Cc1cc(N2CC[C@H](CNc3nc(-c4cc(Cl)cc(Cl)c4)no3)C2)ccn1 [Compound 235]	29.5
COc1cc(OC)cc(-c2noc(N3CCCC4(CCN(c5ccncc5OC)CC4)C3)n2)c1 [Compound 237]	7.3
COc1cc(CN(C)C)cc(-c2noc(N3CCN(C)C4(CCN(c5ccnc(C)c5)CC4)C3)n2)c1 [Compound 244, 1-(3-methoxy-5-(5-(1-methyl-9-(2-methylpyridin-4-yl)-1,4,9-triazaspiro[5.5]undecan-4-yl)-1,2,4-oxadiazol-3-yl)phenyl)-N,N-dimethylmethanamine]	0.131

Continued, values first:

IC50 [µM]	SMILES
23	COc1cccc(-c2noc(N3CC4CC4(CNc4ccnc(C)c4)C3)n2)c1 (stereo not shown) [Compound 167]
2	COc1cccc(-c2noc(N3CCOC(CCNc4ccnc(C)c4)C3)n2)c1 (stereo not shown) [Compound 169]
5.5	Cc1cc(NCC2CC(C)N(c3nc(-c4cc(Cl)cc(Cl)c4)no3)C2)ccn1 (stereo not shown) [Compound 173]
1.58	Cc1cc(NCC2CN(c3nc(-c4cc(Cl)cc(Cl)c4)no3)CCC2C)ccn1 (stereo not shown) [Compound 174]
0.08	COc1cc(OC)cc(-c2noc(N3Cc4ccccc4C4(CCN(c5ccnc(C)c5)CC4)C3)n2)c1 [Compound 180]
0.814	COc1cc(OC)cc(-c2noc(N3CC(F)(F)OC4(CCN(c5ccnc(C)c5)CC4)C3)n2)c1 [Compound 184]
0.217	COc1cc(OC)cc(-c2noc(N3CCC(O)C4(CCN(c5ccnc(C)c5)CC4)C3)n2)c1 (stereo not shown) [Compound 186]
19	Clc1cc(Cl)cc(-c2noc(N3CCCC4(CN(c5cccnn5)C4)C3)n2)c1 [Compound 196]
24	Cc1cc(N2CCC(C)(Nc3nc(-c4cc(Cl)cc(Cl)c4)no3)C2)ccn1 (stereo not shown) [Compound 211]
0.464	Cc1cc(N2CCC3(CC2)CCN(c2nc(-c4cc(Cl)cc(Cl)c4)no2)C3)ccn1 [Compound 214]
5.38	Cc1cc(NCC2CCCN(c3nc(-c4cc(Cl)cc(Cl)c4)no3)C2)ccn1 (stereo not shown) [Compound 221]
11.5	Cc1cc(N2CCC3(CCC3Nc3nc(-c4cc(Cl)cc(Cl)c4)no3)CC2)ccn1 (stereo not shown) [Compound 230]
2.75	Cc1cc(N2CCC(CNc3nc(-c4cc(Cl)cc(Cl)c4)no3)CC2)ccn1 [Compound 233]
0.4	COc1cccc(-c2noc(N3CCCC4(CCN(c5ccnc(C)c5)CC4)C3)n2)c1 [Compound 236]
≥ 50	Cc1cc(NC(=O)C2CCN(c3nc(-c4cc(Cl)cc(Cl)c4)no3)CC2)ccn1 [Compound 238, 1-(3-(3,5-dichlorophenyl)-1,2,4-oxadiazol-5-yl)-N-(2-methylpyridin-4-yl)piperidine-4-carboxamide]
≥ 50	Cc1cc(N2CC3(CC(NC(=O)Nc4cc(Cl)cc(Cl)c4)C3)C2)ccn1 [Compound 239, 1-(3,5-dichlorophenyl)-3-(2-(2-methylpyridin-4-yl)-2-azaspiro[3.3]heptan-6-yl)urea]
≥ 50	Cc1cc(N2CC3(CCCN(C(=O)Nc4cc(Cl)cc(Cl)c4)C3)C2)ccn1 [Compound 240]
0.155	CCN1CCN(c2nc(-c3cc(OC)cc(OC)c3)no2)CC12CCN(c1ccnc(C)c1)CC2 [Compound 242, 3-(3,5-dimethoxyphenyl)-5-(1-ethyl-9-(2-methylpyridin-4-yl)-1,4,9-triazaspiro[5.5]undecan-4-yl)-1,2,4-oxadiazole]
0.103	COc1cc(CN)cc(-c2noc(N3CCN(C)C4(CCN(c5ccnc(C)c5)CC4)C3)n2)c1 [Compound 243, (3-methoxy-5-(5-(1-methyl-9-(2-methylpyridin-4-yl)-1,4,9-triazaspiro[5.5]undecan-4-yl)-1,2,4-oxadiazol-3-yl)phenyl)methanamine]
